Measurements published in ChEMBL document CHEMBL5291721, “A preclinical secondary pharmacology resource illuminates target-adverse drug reaction associations of marketed drugs” (Nat Commun, 2023).

Key:
Bile acid receptor [1] = biological target: T1, Bile acid receptor (Homo sapiens, UniProt Q96RI1); format: functional
T1 sequence (Q96RI1 whole entry): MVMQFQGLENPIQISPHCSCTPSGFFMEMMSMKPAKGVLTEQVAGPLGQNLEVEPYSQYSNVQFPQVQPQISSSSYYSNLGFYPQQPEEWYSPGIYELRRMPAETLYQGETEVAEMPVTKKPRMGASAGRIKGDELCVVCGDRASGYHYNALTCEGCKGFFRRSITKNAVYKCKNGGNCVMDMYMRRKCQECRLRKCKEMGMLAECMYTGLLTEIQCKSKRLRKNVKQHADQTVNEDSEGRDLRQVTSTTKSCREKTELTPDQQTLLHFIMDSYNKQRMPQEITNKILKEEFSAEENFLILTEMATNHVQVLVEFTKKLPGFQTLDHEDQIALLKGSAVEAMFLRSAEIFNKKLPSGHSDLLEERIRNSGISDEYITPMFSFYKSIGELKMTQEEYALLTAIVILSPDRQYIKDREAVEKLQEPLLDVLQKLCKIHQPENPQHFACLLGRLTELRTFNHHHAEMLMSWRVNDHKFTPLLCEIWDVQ

Bile acid receptor [2] = biological target: T1, Bile acid receptor; format: functional; remark: listed apart in the source
[3] = biological target: T2, Retinoic acid receptor beta (Homo sapiens, UniProt P10826); format: functional, cell-based
T2 sequence (P10826 whole entry): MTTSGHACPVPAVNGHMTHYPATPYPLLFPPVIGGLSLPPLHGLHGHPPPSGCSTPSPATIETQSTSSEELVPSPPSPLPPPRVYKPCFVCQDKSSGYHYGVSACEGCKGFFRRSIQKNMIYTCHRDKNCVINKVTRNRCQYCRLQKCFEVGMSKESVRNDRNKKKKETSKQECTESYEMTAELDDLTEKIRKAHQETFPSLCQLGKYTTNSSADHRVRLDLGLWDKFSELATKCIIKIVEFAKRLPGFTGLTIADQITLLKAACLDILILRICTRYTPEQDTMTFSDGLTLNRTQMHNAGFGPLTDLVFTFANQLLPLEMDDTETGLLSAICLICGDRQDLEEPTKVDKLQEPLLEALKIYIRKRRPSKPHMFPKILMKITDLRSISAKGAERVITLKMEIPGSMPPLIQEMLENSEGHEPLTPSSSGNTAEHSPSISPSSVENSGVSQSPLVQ

[4] = biological target: T3, Oxysterols receptor LXR-alpha (Homo sapiens, UniProt Q13133); format: functional
T3 sequence (Q13133 whole entry): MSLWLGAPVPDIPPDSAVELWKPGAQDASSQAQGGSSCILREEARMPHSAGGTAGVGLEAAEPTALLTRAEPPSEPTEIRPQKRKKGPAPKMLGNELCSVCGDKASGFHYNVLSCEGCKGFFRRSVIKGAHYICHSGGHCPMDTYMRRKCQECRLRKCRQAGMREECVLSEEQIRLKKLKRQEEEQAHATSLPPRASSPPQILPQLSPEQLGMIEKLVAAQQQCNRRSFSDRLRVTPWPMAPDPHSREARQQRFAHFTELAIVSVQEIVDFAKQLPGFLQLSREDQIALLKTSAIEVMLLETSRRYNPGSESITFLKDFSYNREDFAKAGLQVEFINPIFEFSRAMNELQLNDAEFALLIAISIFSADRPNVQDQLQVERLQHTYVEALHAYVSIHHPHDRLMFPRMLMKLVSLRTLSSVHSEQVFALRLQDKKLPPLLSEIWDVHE

[5] = biological target: T4, Oxysterols receptor LXR-beta (Homo sapiens, UniProt P55055); format: functional
T4 sequence (P55055 whole entry): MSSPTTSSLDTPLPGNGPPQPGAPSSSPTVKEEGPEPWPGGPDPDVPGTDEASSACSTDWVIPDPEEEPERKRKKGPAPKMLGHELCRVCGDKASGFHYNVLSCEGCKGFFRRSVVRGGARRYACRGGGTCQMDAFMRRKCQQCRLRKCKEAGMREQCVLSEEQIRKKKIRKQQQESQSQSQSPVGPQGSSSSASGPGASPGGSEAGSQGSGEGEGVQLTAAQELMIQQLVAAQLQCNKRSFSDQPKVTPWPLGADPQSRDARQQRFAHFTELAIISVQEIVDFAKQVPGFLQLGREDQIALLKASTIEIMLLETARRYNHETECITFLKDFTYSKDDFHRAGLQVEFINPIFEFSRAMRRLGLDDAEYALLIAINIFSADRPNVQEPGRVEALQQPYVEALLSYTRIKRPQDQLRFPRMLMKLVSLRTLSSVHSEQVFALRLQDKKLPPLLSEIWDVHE

[6] = biological target: T5, Alpha-1A adrenergic receptor (Homo sapiens, UniProt P35348)
T5 sequence (P35348 whole entry): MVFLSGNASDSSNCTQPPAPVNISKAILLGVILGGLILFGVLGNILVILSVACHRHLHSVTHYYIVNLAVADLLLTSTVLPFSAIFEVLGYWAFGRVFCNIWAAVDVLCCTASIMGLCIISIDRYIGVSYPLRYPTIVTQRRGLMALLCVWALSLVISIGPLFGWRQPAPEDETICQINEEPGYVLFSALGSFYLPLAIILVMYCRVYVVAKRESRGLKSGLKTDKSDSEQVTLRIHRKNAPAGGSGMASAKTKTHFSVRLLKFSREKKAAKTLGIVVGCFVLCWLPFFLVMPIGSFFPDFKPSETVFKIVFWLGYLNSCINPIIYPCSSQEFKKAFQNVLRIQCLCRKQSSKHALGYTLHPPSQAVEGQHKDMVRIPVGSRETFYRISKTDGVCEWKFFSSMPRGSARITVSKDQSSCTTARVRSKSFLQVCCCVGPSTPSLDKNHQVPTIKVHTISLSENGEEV

[7] = biological target: T6, Alpha-2A adrenergic receptor (Homo sapiens, UniProt P08913)
T6 sequence (P08913 whole entry): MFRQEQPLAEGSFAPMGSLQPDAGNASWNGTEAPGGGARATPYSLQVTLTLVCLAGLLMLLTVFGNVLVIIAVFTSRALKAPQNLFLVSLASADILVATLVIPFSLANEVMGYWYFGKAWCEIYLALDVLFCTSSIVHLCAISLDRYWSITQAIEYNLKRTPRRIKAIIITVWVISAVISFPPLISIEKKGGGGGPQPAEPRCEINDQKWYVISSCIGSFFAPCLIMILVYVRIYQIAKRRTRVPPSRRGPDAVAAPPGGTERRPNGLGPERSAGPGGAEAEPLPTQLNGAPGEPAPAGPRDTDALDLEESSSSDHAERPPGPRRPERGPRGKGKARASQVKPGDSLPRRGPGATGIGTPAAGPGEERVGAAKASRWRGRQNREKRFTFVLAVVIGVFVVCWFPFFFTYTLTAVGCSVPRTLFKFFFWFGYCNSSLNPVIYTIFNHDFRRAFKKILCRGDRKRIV
Further: assay procedure not described here.

SMILES | AC50 (Bile acid receptor [1]) [µM] | AC50 (Bile acid receptor [2]) [µM] | AC50 [3] [µM] | AC50 [4] [µM] | AC50 [5] [µM] | AC50 [6] [µM] | AC50 [7] [µM]
Cc1c(C(=O)NN2CCCCC2)nn(-c2ccc(Cl)cc2Cl)c1-c1ccc(Cl)cc1 [RIMONABANT] | > 30 | 14 | > 30 | > 30 | > 30 |  | 
CCc1oc2ccccc2c1C(=O)c1cc(I)c(O)c(I)c1 [BENZIODARONE] |  |  |  |  |  | > 30 | 
O=C(OCC(O)CO)c1ccccc1Nc1ccnc2cc(Cl)ccc12 (centres undefined) [GLAFENINE] |  |  |  |  |  |  | > 30
Cc1cn([C@H]2C=C[C@@H](CO)O2)c(=O)[nH]c1=O [STAVUDINE] |  |  |  |  |  |  | > 30
CC[C@H]1OC(=O)[C@H](C)[C@@H](O[C@H]2C[C@@](C)(OC)[C@@H](O)[C@H](C)O2)[C@H](C)[C@@H](O[C@@H]2O[C@H](C)C[C@H](N(C)C)[C@H]2O)[C@](C)(O)C[C@@H](C)CN(C)[C@H](C)[C@@H](O)[C@]1(C)O [AZITHROMYCIN] |  |  |  |  |  | > 30 | 
CN1C(C(=O)Nc2ccccn2)=C(O)c2sc(Cl)cc2S1(=O)=O [LORNOXICAM] | > 30 | > 30 | > 30 | > 30 | > 30 |  | 
